Assay results reported in article PMC4863456 (Journal of Chemical Information and Modeling, 2015).

How the values were obtained:
CB1 M6.55A mutation [1] = assay: Published binding data, M6.55A mutation; settings: M6.55 to alanine
[2] = tested on: CB1 W5.43 mutated to alanine; settings: W5.43 to alanine; cited from earlier work
[3] = tested on: CB1 K3.28 mutated to alanine; settings: K3.28 to alanine; cited from earlier work
CB1 M6.55A mutation [4] = settings: M6.55 to alanine; cited from earlier work

decrease in binding affinity upon mutation, as energy (CB1 M6.55A mutation [1]): 0.65 kcal/mol
SMILES: Cc1c(C(=O)NN2CCCCC2)nn(-c2ccc(Cl)cc2Cl)c1-c1ccc(Cl)cc1 [rimonabant, N-(Piperidin-1-yl)-5-(4-Chlorophenyl)-1-(2,4-Dichlorophenyl)-4-Methyl-1H -Pyrazole-3-Carboxamide]
decrease in experimental binding affinity upon mutation [2]: > 1000 fold
decrease in experimental binding affinity upon mutation [3]: 17.2 fold
decrease in binding affinity upon mutation (CB1 M6.55A mutation [4]): 3 fold
